Test results taken from patent publication US20220298143A1, “Pyrazole Derivatives for FGFR Inhibitor and Preparation Method Thereof” (Etern Biopharma (Shanghai) Co., Ltd., priority 2019, published 2022).
Where two headings read alike, the source gives them in different places.

How the values were obtained:
FGFR1 = molecular target: T1, FGFR1 (Homo sapiens, UniProt P11362); test: Enzymatic activity test of FGFR inhibitor, Caliper model; assay type: biochemical
T1 construct: purchased Cama (sic; Carna) 08-133
T1 sequence (P11362 22-822): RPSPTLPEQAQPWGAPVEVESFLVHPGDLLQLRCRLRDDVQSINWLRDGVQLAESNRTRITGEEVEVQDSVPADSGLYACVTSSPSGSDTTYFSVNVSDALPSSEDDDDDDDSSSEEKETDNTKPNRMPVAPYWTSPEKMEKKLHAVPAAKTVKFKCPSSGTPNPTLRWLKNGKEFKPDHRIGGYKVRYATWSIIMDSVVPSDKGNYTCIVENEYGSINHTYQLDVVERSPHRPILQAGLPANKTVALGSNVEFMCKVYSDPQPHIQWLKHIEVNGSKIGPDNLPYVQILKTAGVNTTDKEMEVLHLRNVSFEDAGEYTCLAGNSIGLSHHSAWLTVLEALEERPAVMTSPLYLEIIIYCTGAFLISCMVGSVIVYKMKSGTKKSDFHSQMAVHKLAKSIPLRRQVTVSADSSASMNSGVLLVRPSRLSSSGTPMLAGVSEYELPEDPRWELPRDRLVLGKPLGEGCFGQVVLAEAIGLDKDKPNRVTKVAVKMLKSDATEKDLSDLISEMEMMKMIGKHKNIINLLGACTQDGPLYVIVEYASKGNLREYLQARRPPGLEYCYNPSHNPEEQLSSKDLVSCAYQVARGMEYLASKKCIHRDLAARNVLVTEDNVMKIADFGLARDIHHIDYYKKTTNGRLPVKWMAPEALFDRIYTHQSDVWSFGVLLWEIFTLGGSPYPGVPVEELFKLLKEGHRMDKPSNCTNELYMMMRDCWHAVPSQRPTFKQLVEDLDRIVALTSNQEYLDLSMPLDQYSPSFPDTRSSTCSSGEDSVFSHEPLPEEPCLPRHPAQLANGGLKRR
Method: (§1) Enzymatic Activity Test of FGFR Inhibitor-Caliper Model
(§2) The specific operation steps were as follows:
(§3) The compound was first serially diluted in 5% DMSO solution, and 5 μL of the compound solution was added to a 384-well plate. The maximum final concentration of the compound is 1 μM, being diluted three times with 10 concentrations.
(§4) 10 μL of kinase solution was added to the 384-well plate and incubated at room temperature for 10 minutes;
(§5) 10 μL of P22 peptide and ATP solution were added to the 384-well plate, and 25 μL of reaction stop buffer was added after a specific time at 28° C.;
(§6) The data was collected in Caliper read and the inhibition rate was calculated according to inhibition rate=(max−conversion)/(max−min)*100, where max is DMSO control, conversion is the reading of the compound treated group, and min is the maximum inhibition control. IC50 value of the compound was calculated with XLfit excel add-in version 5.4.0.8 software.

FGFR2 = FGFR2 (Homo sapiens, UniProt P21802); test: as above; assay type: biochemical; settings: kinase pre-incubation 10 minutes
Chain of FGFR2 (P21802 22-821): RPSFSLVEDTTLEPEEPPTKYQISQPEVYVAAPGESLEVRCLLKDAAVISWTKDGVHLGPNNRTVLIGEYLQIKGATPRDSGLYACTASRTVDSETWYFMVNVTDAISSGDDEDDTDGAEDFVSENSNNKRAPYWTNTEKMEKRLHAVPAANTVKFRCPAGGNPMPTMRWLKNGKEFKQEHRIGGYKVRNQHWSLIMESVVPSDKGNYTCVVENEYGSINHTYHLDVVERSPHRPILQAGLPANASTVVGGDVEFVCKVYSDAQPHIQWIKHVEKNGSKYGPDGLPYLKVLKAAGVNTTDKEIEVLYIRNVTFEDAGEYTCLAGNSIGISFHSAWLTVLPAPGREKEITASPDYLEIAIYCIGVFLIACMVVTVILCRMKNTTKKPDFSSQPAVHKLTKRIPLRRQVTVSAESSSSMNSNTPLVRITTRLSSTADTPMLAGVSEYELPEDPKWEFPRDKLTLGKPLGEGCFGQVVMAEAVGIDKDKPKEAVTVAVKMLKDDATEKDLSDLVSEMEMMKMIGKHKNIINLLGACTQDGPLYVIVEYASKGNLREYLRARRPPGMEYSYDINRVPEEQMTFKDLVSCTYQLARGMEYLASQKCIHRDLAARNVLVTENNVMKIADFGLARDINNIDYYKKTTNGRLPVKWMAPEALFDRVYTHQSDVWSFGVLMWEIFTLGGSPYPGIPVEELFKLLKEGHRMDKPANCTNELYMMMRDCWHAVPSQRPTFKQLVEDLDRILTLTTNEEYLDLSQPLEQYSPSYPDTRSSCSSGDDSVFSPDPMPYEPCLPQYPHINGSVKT

FGFR3 = FGFR3 (Homo sapiens, UniProt P22607); test: as above; assay type: biochemical; settings: kinase pre-incubation 10 minutes
Chain of FGFR3 (P22607 23-806): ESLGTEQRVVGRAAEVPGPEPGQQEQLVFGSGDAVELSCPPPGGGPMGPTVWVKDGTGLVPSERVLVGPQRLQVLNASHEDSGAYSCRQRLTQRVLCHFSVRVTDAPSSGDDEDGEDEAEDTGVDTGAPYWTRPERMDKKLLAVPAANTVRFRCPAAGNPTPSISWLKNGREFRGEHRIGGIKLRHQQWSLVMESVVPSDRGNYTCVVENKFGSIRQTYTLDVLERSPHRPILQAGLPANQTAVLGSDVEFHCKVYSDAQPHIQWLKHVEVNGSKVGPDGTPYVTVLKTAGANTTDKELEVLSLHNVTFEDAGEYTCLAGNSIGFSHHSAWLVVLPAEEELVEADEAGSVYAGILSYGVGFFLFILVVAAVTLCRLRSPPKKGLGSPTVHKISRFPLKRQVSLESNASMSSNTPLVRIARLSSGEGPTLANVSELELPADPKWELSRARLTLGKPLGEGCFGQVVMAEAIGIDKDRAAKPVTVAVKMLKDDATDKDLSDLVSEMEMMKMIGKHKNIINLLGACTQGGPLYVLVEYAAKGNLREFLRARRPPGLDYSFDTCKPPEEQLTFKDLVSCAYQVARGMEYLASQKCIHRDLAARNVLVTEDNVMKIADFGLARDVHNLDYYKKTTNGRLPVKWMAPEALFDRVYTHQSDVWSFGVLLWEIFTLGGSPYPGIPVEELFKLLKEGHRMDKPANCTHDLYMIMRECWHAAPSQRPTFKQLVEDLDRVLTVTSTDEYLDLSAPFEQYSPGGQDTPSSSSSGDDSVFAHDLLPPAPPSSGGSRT

FGFR4 = molecular target: T2, FGFR4 (Homo sapiens, UniProt P22455); test: as above; assay type: biochemical
T2 construct: purchased Invitrogen PR4380A
T2 sequence (P22455 22-802): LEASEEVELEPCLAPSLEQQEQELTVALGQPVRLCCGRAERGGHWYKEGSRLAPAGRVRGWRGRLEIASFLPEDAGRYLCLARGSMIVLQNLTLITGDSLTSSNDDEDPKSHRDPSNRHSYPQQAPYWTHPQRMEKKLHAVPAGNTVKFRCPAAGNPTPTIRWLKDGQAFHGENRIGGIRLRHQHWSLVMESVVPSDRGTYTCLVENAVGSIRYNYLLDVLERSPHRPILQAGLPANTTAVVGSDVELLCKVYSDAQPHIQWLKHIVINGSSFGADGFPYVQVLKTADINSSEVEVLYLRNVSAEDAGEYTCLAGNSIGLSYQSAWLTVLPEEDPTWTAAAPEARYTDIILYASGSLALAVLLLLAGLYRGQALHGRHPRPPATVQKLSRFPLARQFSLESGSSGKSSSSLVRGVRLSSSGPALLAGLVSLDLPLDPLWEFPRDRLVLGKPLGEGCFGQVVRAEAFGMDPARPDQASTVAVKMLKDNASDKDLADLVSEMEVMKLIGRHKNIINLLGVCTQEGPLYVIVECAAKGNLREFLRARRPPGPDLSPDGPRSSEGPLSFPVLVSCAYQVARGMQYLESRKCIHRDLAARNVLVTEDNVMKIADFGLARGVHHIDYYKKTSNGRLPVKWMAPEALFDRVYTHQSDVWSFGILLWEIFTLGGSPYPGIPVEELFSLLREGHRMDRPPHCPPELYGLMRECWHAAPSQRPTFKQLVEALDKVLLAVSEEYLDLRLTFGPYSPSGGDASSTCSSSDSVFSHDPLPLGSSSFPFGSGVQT
Method: as §1, §2, §3, §4, §5, §6

Hep3B cells = test: Human liver cancer cell Hep3B survival test (CellTiter-Glo); assay type: cell-based; settings: 72 hours compound treatment
Method: Human Liver Cancer Cell Hep3B Survival Test
The human liver cancer Hep3B cell line was from ATCC. The cells were cultured in DMEM liquid medium, and fetal bovine serum (10% FBS) and penicillin-streptomycin (100,000 U/L) were added. The cells were kept at 37° C., 95% humidity and 5% carbon dioxide in the culture medium. During the experiment, Hep3B cells were seeded in a 96-well plate at a density of 3000 cells per well. The volume of the cell suspension was 100 μL per well, and the cells were cultured overnight to attach the cells. The next day, each compound was diluted with DMSO in a three-fold gradient, and 1 μL of the solution of the compound in DMSO was added to the cell culture medium. At the same time, 1 μL of DMSO was used as a control. Three parallel sub-wells were set for each concentration of each compound. Then the cells were placed in a 37° C. incubator. After 72 hours of continuous compound treatment, 50 μL CellTiter-Glo (Promega, Madison Wis.) was added to the cell culture medium. The relative luminescence unit (RLU) of each well was determined and the cell survival rate and compound activity (IC50) were calculated.

[1] = Compound pharmacokinetic experiment, single intragastric administration; assay type: in vivo; settings: mouse, plasma, male mice, oral dosage 15 mg/Kg; for Cmax: read-out: Peak plasma concentration Cmax; for AUC: read-out: Plasma exposure AUC
Method: Compound Pharmacokinetic Experiment
The pharmacokinetics of the compounds of the present disclosure was determined. This application used the following methods to determine the pharmacokinetic parameters of the compounds.
For the healthy male adult mice used in the study, each group of animals was given a single intragastric administration of 5-100 mg/Kg. Fasting was from 10 hours before administration to 4 hours after administration. Blood was collected at different time points after administration, and the plasma content of the compound was determined (LC-MS/MS). The plasma concentration-time relationship was analyzed with professional software (winnonlin) to calculate the pharmacokinetic parameters of the compound.

[2] = Caliper, kinase pre-incubation 10 minutes, read-out: FGFR1
[3] = Caliper, kinase pre-incubation 10 minutes, read-out: FGFR4

SMILES | IC50 (FGFR1; [2]) | IC50 (FGFR2) | IC50 (FGFR3) | IC50 (FGFR4; [3]) | IC50 (Hep3B cells) | Cmax [1] | AUC [1] | IC50 (FGFR1) | IC50 (FGFR4)
C=CC(=O)Nc1cc(OCCC(F)(F)F)ccc1C(=O)Nc1cc(CCc2cc(OC)cc(OC)c2)n[nH]1 [Compound 9, 2-acrylamido-N-(3-(3,5-dimethoxyphenethyl)-1H-pyrazol-5-yl)-4-(3,3,3-trifluoropropoxy)benzamide] | 3.1 nM | 4.4 nM | 4.4 nM | 3.6 nM | 2 nM |  |  |  | 
COc1cc(CCc2cc(NC(=O)c3ccc(N4C[C@@H](C)N[C@@H](C)C4)cc3)n[nH]2)cc(OC)c1 [AZD4547, reference compound] |  |  |  |  | 263 nM |  |  |  | 
C=CC(=O)Nc1cc(N(C)CCC(F)(F)F)ccc1C(=O)Nc1cc(CCc2cc(OC)cc(OC)c2)n[nH]1 [Compound 13, 2-acrylamido-N-(3-(3,5-dimethoxyphenethyl)-1H-pyrazol-5-yl)-4-(methyl(3,3,3-trifluoropropyl)amino)benzamide] | 3.4 nM | 4.9 nM | 3.1 nM | 3.8 nM | 12 nM |  |  |  | 
C=CC(=O)Nc1cc(N2CCC(F)(F)C2)ccc1C(=O)Nc1cc(CCc2cc(OC)cc(OC)c2)n[nH]1 [Compound 8, 2-acrylamido-4-(3,3-difluoropyrrolidin-1-yl)-N-(3-(3,5-dimethoxyphenethyl)-1H-pyrazol-5-yl)benzamide] | 2.7 nM | 2.8 nM | 2.3 nM | 2.7 nM | 8 nM |  |  |  | 
C=CC(=O)Nc1cc(N2CCC(F)(F)CC2)ccc1C(=O)Nc1cc(CCc2cc(OC)cc(OC)c2)n[nH]1 [Compound 7, 2-acrylamido-4-(4,4-difluoropiperidin-1-yl)-N-(3-(3,5-dimethoxyphenethyl)-1H-pyrazol-5-yl)benzamide] | 2.1 nM | 3.4 nM | 2.3 nM | 3.2 nM | 6 nM |  |  |  | 
C=CC(=O)Nc1ccccc1C(=O)Nc1cc(CCc2cc(OC)cc(OC)c2)[nH]n1 [Control a, 2-acrylamido-N-(3-(3,5-dimethoxyphenethyl)-1H-pyrazol-5-yl)benzamide, reference compound] | 4.5 nM | 2.2 nM | 1.7 nM |  | 5 nM | 377 nM | 0.404 µM·h |  | 
C=CC(=O)Nc1cc(N2CCN(CC(F)F)CC2)ccc1C(=O)Nc1cc(CCc2cc(OC)cc(OC)c2)n[nH]1 [Compound 3, 2-acrylamide-4-(4-(2,2-difluoroethyl)piperazin-1-yl)-N-(3-(3,5-dimethoxyphenethyl)-1H-pyrazol-5-yl)benzamide] |  | 5.3 nM | 4.6 nM |  | 3 nM |  |  | 3.6 nM | 5.7 nM
C=CC(=O)Nc1cc(N2CCN(CC(F)(F)C(F)(F)F)CC2)ccc1C(=O)Nc1cc(CCc2cc(OC)cc(OC)c2)n[nH]1 [Compound 14, 2-acrylamido-N-(3-(3,5-dimethoxyphenethyl)-1H-pyrazol-5-yl)-4-(4-(2,2,3,3,3-pentafluoropropyl)piperazin-1-yl)benzamide] | 6.1 nM | 5.9 nM | 5.8 nM | 5.9 nM | 7 nM | 344 nM | 1.15 µM·h |  | 
C=CC(=O)Nc1cc(N2CCN(CC(F)(F)F)CC2)ccc1C(=O)Nc1cc(CCc2cc(OC)cc(OC)c2)n[nH]1 [Compound 2, 2-acrylamide-N-(3-(3,5-dimethoxyphenethyl)-1H-pyrazol-5-yl)-4-(4-(2,2,2-trifluoroethyl)piperazin-1-yl) benzamide] | 3.3 nM | 3.7 nM | 2.8 nM | 3.3 nM | 0.8 nM | 2580 nM | 7.52 µM·h |  | 
C=CC(=O)Nc1cc(N2CCN(CCC(F)(F)F)CC2)cc(F)c1C(=O)Nc1cc(CCc2cc(OC)cc(OC)c2)n[nH]1 [Compound 16, 2-acrylamido-N-(3-(3,5-dimethoxyphenethyl)-1H-pyrazol-5-yl)-6-fluoro-4-(4-(3,3,3-trifluoropropyl)piperazin-1-yl)benzamide] |  |  |  |  | 0.3 nM |  |  |  | 
C=CC(=O)Nc1cc(N2CCN(CCC(F)(F)F)CC2)c(OC)cc1C(=O)Nc1cc(CCc2cc(OC)cc(OC)c2)n[nH]1 [Compound 10, 2-acrylamido-N-(3-(3,5-dimethoxyphenethyl)-1H-pyrazol-5-yl)-5-methoxy-4-(4-(3,3,3-trifluoropropyl)piperazin-1-yl)benzamide] | 5.7 nM | 6.1 nM | 7.4 nM | 4.4 nM | 3 nM | 1250 nM | 2.41 µM·h |  | 
C=CC(=O)Nc1cc(N2CCN(CCC(F)(F)F)C(C)C2)ccc1C(=O)Nc1cc(CCc2cc(OC)cc(OC)c2)n[nH]1 (stereo not shown) [Compound 12, 2-acrylamido-N-(3-(3,5-dimethoxyphenethyl)-1H-pyrazol-5-yl)-4-(3-methyl-4-(3,3,3-trifluoropropyl)piperazin-1-yl)benzamide] | 2.7 nM | 4.1 nM | 3 nM | 3.9 nM | 0.5 nM | 663 nM | 1.42 µM·h |  | 
C=CC(=O)Nc1cc(N2CC(F)(F)C2)ccc1C(=O)Nc1cc(CCc2cc(OC)cc(OC)c2)n[nH]1 [Compound 6, 2-acrylamido-4-(3,3-difluoroazetidin-1-yl)-N-(3-(3,5-dimethoxyphenethyl)-1H-pyrazole-5-yl)benzamide] | 2.4 nM | 2.3 nM | 1.7 nM | 2 nM | 3 nM |  |  |  | 
C=CC(=O)Nc1cc(OCC(F)(F)F)ccc1C(=O)Nc1cc(CCc2cc(OC)cc(OC)c2)n[nH]1 [Compound 5, 2-acrylamido-N-(3-(3,5-dimethoxyphenethyl)-1H-pyrazol-5-yl)-4-(2,2,2-trifluoroethoxy)benzamide] | 2.7 nM | 2.7 nM | 2.4 nM | 2.5 nM | 9 nM |  |  |  | 
C=CC(=O)Nc1cc(N2CCN(CCC(F)(F)F)CC2)cnc1C(=O)Nc1cc(CCc2cc(OC)cc(OC)c2)n[nH]1 [Compound 15, 3-acrylamido-N-(3-(3,5-dimethoxyphenethyl)-1H-pyrazol-5-yl)-5-(4-(3,3,3-trifluoropropyl)piperazin-1-yl)pyridinecarboxamide] | 4.8 nM | 4.5 nM | 3.9 nM | 4.4 nM | 12 nM |  |  |  | 
